Where two headings read alike, the source gives them in different places.
Key:
Assay type in all cases: biochemical
CaMKIIβ(h) = biological target: T1, CaMKIIβ(h) (Homo sapiens, UniProt Q13554); test: Kinase panel
T1 construct: purchased Millipore KinaseProfiler

CDK2/cyclinE(h) = biological target: T2, CDK2/cyclinE(h) (Homo sapiens, UniProt P24941); test: Kinase panel
T2 construct: purchased Millipore KinaseProfiler

CK1γ3(h) = biological target: T3, CK1γ3(h) (Homo sapiens, UniProt Q9Y6M4); test: Kinase panel
T3 construct: purchased Millipore KinaseProfiler
T3 sequence (Q9Y6M4 whole entry): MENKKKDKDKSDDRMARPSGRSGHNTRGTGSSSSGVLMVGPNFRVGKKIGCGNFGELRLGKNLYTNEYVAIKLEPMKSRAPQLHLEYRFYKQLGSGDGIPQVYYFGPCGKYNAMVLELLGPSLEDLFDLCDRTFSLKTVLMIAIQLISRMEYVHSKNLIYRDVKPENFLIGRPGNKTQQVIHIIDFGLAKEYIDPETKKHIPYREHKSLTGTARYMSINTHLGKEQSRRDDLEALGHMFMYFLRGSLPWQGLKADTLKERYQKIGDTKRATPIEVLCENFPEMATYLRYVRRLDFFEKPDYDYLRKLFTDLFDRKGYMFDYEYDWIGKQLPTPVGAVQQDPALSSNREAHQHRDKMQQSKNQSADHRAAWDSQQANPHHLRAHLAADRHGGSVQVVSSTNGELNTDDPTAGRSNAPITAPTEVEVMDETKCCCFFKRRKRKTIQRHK

cKit(D816V)(h) = biological target: T4, cKit(D816V)(h) (Homo sapiens, UniProt P10721, D816V); test: Kinase panel
T4 construct: purchased Millipore KinaseProfiler
T4 sequence (P10721 26-976 D816V): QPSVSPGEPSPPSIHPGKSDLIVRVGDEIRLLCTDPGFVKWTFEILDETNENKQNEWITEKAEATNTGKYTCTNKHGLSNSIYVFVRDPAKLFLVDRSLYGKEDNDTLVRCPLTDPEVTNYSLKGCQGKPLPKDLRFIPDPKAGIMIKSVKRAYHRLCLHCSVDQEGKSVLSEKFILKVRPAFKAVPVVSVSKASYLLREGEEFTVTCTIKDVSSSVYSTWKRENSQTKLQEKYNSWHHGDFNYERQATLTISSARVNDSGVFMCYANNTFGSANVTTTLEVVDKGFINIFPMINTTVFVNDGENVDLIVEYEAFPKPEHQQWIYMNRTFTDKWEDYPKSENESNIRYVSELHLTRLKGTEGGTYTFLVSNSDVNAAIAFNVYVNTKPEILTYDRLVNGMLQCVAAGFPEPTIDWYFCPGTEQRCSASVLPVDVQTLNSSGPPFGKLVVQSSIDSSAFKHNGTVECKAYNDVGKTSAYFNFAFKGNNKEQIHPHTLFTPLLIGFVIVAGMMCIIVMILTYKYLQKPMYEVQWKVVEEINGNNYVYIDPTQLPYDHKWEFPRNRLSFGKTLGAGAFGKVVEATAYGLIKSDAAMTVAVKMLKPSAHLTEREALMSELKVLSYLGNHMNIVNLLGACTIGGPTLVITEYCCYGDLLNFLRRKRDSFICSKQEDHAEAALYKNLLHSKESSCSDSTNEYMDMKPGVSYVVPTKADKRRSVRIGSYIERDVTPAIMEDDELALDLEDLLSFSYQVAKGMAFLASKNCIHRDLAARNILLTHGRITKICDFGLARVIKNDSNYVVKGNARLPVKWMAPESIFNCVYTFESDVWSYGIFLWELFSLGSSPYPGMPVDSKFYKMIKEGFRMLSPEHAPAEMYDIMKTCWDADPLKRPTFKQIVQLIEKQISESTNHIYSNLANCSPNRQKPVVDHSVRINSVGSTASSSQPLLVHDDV

EphB4(h) = biological target: T5, EphB4(h) (Homo sapiens, UniProt P54760); test: Kinase panel
T5 construct: purchased Millipore KinaseProfiler
T5 sequence (P54760 16-987): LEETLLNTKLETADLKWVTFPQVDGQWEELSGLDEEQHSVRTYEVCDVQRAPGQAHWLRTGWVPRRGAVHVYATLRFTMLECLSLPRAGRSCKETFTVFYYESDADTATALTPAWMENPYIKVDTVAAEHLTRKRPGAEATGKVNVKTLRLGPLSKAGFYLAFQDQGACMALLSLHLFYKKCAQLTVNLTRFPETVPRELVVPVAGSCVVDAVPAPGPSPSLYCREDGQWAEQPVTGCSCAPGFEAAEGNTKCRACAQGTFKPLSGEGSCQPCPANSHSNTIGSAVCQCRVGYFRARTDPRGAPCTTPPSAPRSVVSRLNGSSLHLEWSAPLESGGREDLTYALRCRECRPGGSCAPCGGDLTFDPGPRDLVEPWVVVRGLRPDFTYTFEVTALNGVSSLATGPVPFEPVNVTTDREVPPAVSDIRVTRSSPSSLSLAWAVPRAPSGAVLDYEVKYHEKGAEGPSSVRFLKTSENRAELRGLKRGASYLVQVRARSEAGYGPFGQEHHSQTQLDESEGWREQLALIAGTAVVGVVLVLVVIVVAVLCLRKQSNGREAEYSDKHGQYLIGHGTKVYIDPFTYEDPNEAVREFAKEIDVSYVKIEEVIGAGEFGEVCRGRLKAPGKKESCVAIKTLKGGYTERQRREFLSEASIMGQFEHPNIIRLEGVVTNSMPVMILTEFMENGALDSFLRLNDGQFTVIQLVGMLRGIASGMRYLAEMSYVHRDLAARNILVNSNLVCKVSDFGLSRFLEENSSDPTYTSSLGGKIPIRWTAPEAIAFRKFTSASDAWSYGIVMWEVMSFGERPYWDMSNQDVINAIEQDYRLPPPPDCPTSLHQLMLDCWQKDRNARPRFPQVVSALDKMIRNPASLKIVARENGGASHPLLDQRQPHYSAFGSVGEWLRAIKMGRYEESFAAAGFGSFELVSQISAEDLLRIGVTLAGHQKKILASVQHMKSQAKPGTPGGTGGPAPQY

GSK3β(h) = biological target: T6, GSK3β(h) (Homo sapiens, UniProt P49841); test: Kinase panel
T6 construct: purchased Millipore KinaseProfiler
T6 sequence (P49841 whole entry): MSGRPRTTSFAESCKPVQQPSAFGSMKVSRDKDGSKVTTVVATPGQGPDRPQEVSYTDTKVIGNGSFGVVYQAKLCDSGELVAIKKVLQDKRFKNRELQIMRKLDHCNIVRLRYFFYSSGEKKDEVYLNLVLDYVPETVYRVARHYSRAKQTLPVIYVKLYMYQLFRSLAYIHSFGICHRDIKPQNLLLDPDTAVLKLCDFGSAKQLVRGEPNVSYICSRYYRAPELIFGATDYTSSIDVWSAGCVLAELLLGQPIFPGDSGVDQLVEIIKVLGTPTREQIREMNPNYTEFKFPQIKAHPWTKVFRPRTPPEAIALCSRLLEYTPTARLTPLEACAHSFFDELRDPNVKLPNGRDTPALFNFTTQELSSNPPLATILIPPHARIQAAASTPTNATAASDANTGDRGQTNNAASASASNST

MST2(h) = biological target: T7, MST2(h) (Homo sapiens, UniProt Q13188); test: Kinase panel
T7 construct: purchased Millipore KinaseProfiler
T7 sequence (Q13188 1-491): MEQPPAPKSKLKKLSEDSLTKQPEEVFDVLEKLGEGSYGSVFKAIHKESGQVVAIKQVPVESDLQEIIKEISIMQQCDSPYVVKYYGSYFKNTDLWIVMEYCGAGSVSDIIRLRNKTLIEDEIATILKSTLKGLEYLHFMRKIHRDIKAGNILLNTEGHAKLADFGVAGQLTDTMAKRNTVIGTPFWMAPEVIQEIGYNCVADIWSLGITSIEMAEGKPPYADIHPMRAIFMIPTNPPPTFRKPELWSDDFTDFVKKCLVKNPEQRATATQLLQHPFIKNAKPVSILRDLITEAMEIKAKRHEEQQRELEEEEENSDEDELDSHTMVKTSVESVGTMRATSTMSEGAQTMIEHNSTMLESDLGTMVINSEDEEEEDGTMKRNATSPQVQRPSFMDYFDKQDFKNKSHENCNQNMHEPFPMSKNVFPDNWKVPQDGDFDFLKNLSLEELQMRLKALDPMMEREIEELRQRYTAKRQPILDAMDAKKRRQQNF

NEK7(h) = biological target: T8, NEK7(h) (Homo sapiens, UniProt Q8TDX7); test: Kinase panel
T8 construct: purchased Millipore KinaseProfiler
T8 sequence (Q8TDX7 whole entry): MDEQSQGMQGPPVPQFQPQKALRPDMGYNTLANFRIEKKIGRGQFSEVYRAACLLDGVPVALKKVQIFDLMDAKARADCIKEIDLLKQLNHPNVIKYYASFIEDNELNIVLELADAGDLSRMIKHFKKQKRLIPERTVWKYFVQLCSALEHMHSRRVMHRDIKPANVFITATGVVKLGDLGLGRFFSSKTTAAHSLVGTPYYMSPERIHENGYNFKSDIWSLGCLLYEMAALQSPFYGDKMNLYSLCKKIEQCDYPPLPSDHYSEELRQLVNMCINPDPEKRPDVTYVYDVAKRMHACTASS

PAK5(h) = biological target: T9, PAK5(h) (Homo sapiens, UniProt Q9P286); test: Kinase panel
T9 construct: purchased Millipore KinaseProfiler
T9 sequence (Q9P286 whole entry): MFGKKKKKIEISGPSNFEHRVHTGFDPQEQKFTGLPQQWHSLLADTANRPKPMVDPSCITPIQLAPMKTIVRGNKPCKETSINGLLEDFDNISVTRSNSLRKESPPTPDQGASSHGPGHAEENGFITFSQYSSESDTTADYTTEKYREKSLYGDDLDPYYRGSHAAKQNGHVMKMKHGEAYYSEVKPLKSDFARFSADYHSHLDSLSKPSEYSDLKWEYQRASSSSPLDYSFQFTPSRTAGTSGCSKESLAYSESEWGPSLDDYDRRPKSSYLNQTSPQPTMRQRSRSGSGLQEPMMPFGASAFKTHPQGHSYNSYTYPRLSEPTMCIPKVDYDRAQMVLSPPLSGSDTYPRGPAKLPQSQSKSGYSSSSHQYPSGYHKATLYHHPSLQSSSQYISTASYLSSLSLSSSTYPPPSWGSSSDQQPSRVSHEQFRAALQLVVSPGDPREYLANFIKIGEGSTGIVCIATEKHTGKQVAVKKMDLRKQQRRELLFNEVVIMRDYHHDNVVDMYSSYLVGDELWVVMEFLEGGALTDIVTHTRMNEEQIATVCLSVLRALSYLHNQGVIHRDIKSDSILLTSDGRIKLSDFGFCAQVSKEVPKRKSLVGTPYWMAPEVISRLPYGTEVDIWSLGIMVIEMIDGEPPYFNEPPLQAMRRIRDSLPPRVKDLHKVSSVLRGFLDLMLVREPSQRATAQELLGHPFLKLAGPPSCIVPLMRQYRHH

PKCι(h) = biological target: T10, PKCι(h) (Homo sapiens, UniProt P41743); test: Kinase panel
T10 construct: purchased Millipore KinaseProfiler
T10 sequence (P41743 1-596): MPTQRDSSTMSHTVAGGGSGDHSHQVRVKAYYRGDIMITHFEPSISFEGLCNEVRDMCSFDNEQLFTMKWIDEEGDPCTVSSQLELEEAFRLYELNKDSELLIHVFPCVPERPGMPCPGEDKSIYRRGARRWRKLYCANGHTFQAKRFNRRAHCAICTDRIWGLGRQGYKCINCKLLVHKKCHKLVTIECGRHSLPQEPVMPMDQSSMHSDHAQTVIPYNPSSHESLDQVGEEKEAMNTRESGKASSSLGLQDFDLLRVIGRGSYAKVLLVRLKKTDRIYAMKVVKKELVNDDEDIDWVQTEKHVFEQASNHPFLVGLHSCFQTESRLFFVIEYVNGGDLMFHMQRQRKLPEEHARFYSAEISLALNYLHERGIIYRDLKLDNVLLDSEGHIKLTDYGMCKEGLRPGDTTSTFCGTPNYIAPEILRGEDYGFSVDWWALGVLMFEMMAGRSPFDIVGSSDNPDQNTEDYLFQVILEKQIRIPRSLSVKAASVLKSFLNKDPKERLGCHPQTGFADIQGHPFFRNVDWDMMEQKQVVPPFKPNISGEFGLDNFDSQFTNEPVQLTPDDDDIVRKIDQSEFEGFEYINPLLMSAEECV

Src(T341M)(h) = biological target: T11, Src(T341M)(h) (Homo sapiens, UniProt P12931, T341M); test: Kinase panel
T11 construct: purchased Millipore KinaseProfiler
T11 sequence (P12931 whole entry T341M): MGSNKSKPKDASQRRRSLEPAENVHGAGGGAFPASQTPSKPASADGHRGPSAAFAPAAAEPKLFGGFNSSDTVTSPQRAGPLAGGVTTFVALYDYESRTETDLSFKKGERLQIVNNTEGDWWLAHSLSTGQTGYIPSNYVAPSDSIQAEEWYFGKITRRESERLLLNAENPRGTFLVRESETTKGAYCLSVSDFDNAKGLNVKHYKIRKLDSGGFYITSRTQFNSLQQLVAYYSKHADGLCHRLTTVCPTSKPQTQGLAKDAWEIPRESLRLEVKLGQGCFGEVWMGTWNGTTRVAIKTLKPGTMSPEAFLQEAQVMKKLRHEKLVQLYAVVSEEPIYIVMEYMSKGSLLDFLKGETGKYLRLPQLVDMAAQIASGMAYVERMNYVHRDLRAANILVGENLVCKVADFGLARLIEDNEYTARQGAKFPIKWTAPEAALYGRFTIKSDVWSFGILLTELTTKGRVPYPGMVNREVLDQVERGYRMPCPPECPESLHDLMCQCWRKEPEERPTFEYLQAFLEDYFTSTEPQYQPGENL

TLK2(h) = biological target: T12, TLK2(h) (Homo sapiens, UniProt Q86UE8); test: Kinase panel
T12 construct: purchased Millipore KinaseProfiler
T12 sequence (Q86UE8 whole entry): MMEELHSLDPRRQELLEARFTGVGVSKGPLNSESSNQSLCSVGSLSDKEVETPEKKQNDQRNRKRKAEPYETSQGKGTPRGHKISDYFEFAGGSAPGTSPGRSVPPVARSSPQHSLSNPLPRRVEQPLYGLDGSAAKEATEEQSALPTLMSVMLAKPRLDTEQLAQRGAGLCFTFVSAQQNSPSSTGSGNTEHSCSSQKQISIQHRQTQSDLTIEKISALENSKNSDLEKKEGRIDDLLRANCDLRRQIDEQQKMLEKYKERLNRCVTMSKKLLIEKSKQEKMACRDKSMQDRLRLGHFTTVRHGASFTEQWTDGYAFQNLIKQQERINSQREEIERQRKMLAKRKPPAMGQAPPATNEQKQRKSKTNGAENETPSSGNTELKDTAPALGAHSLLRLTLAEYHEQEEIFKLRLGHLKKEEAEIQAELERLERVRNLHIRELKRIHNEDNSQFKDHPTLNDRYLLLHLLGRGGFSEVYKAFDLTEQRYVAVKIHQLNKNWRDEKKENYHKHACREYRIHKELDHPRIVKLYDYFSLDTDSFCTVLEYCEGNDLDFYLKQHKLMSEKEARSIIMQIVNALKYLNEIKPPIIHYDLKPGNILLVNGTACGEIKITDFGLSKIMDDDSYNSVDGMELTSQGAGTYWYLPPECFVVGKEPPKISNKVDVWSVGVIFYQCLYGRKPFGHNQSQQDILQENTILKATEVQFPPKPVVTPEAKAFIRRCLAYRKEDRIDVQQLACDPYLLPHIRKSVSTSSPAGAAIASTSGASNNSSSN

PKCμ = PKCμ (Homo sapiens, UniProt Q15139); test: Kinase IC50 assay

T1 sequence (Q13554 whole entry): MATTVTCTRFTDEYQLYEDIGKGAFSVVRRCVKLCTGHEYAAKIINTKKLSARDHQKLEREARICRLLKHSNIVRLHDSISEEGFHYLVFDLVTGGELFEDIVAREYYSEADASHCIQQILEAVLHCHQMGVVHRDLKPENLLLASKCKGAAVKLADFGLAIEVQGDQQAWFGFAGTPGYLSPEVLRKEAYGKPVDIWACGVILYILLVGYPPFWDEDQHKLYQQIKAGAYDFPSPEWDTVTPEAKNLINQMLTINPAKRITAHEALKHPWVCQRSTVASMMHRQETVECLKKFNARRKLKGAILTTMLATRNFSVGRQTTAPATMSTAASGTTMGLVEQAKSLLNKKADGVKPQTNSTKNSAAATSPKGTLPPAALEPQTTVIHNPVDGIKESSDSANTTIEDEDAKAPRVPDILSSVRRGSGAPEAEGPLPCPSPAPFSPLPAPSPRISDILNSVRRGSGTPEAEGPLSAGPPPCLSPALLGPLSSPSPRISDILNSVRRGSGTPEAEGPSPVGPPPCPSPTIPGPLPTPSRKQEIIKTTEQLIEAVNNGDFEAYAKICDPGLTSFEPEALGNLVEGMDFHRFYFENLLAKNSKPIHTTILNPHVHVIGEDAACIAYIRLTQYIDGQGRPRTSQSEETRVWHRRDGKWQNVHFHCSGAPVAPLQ

SMILES: Cn1ncc(Cl)c1-c1cc(C(=O)N[C@H](CN)Cc2cccc(F)c2)sc1Cl [GSK2110183]
- inhibition at 0.5 µM (CaMKIIβ(h)): 5%
- inhibition at 10 µM (CaMKIIβ(h)): 61%
- inhibition at 0.5 µM (CDK2/cyclinE(h)): 3%
- inhibition at 10 µM (CDK2/cyclinE(h)): 12%
- inhibition at 0.5 µM (CK1γ3(h)): 7%
- inhibition at 10 µM (CK1γ3(h)): 28%
- inhibition at 0.5 µM (cKit(D816V)(h)): 0%
- inhibition at 10 µM (cKit(D816V)(h)): 9%
- inhibition at 0.5 µM (EphB4(h)): 0%
- inhibition at 10 µM (EphB4(h)): 10%
- inhibition at 0.5 µM (GSK3β(h)): 4%
- inhibition at 10 µM (GSK3β(h)): 5%
- inhibition at 0.5 µM (MST2(h)): -4%
- inhibition at 10 µM (MST2(h)): -2%
- inhibition at 0.5 µM (NEK7(h)): -8%
- inhibition at 10 µM (NEK7(h)): -12%
- inhibition at 0.5 µM (PAK5(h)): 2%
- inhibition at 10 µM (PAK5(h)): 49%
- inhibition at 0.5 µM (PKCι(h)): 1%
- inhibition at 10 µM (PKCι(h)): 50%
- inhibition at 0.5 µM (Src(T341M)(h)): 24%
- inhibition at 10 µM (Src(T341M)(h)): 83%
- inhibition at 0.5 µM (TLK2(h)): -2%
- inhibition at 10 µM (TLK2(h)): -1%
- IC50 (PKCμ): > 1000 nM

SMILES: Cn1ncc(Cl)c1-c1cc(C(=O)N[C@H](CN)Cc2ccc(F)c(F)c2)oc1Cl [GSK2141795]
- inhibition at 0.5 µM (CaMKIIβ(h); 0.5 µM, read-out: % Inhibition): 15%
- inhibition at 10 µM (CaMKIIβ(h); 10 µM, read-out: % Inhibition): 75%
- inhibition at 0.5 µM (CDK2/cyclinE(h); 0.5 µM, read-out: % Inhibition): -2%
- inhibition at 10 µM (CDK2/cyclinE(h); 10 µM, read-out: % Inhibition): 29%
- inhibition at 0.5 µM (CK1γ3(h); 0.5 µM, read-out: % Inhibition): -14%
- inhibition at 10 µM (CK1γ3(h); 10 µM, read-out: % Inhibition): 51%
- inhibition at 0.5 µM (cKit(D816V)(h); 0.5 µM, read-out: % Inhibition): -17%
- inhibition at 10 µM (cKit(D816V)(h); 10 µM, read-out: % Inhibition): -16%
- inhibition at 0.5 µM (EphB4(h); 0.5 µM, read-out: % Inhibition): 5%
- inhibition at 10 µM (EphB4(h); 10 µM, read-out: % Inhibition): 5%
- inhibition at 0.5 µM (GSK3β(h); 0.5 µM, read-out: % Inhibition): -8%
- inhibition at 10 µM (GSK3β(h); 10 µM, read-out: % Inhibition): -13%
- inhibition at 0.5 µM (MST2(h); 0.5 µM, read-out: % Inhibition): -2%
- inhibition at 10 µM (MST2(h); 10 µM, read-out: % Inhibition): 4%
- inhibition at 0.5 µM (NEK7(h); 0.5 µM, read-out: % Inhibition): -9%
- inhibition at 10 µM (NEK7(h); 10 µM, read-out: % Inhibition): -32%
- inhibition at 0.5 µM (PAK5(h); 0.5 µM, read-out: % Inhibition): 0%
- inhibition at 10 µM (PAK5(h); 10 µM, read-out: % Inhibition): 40%
- inhibition at 0.5 µM (PKCι(h); 0.5 µM, read-out: % Inhibition): 0%
- inhibition at 10 µM (PKCι(h); 10 µM, read-out: % Inhibition): 43%
- inhibition at 0.5 µM (Src(T341M)(h); 0.5 µM, read-out: % Inhibition): 34%
- inhibition at 10 µM (Src(T341M)(h); 10 µM, read-out: % Inhibition): 88%
- inhibition at 0.5 µM (TLK2(h); 0.5 µM, read-out: % Inhibition): -11%
- inhibition at 10 µM (TLK2(h); 10 µM, read-out: % Inhibition): 10%
- IC50 (PKCμ): 690 nM

— PMC4076210, “Discovery of Novel AKT Inhibitors with Enhanced Anti-Tumor Effects in Combination with the MEK Inhibitor” (PLoS ONE, 2014)
